Assays:
AT-remodeled canine LA = assay: Action potential duration in AT-remodeled canine LA preparations; details: for effect on action potential duration (in words): AT-remodeled canine LA
Protocol: (§1) Adult dogs were divided into control and AT groups. AT dogs were initially anesthetized with diazepam (0.25 mg/kg IV), ketamine (5.0 mg/kg IV), and halothane (1% to 2%) for transvenous insertion of right ventricular (RV) and right atrial (RA) unipolar pacing leads connected to ventricular and atrial pacemakers implanted in the neck. Pacing began 24 hours after pacemaker implantation. AV block was created by radiofrequency catheter ablation and the RV demand-pacemaker was programmed to 80 bpm. The RA was then tachypaced (400 bpm) for 7-13 days.
(§2) On study days, dogs were anesthetized with pentobarbital (30 mg·kg^−1 I.V.) and artificially ventilated. Hearts and adjacent lung tissue were excised via a left thoracotomy and immersed in oxygenated Tyrode solution. For cell isolation, the proximal circumflex coronary artery was cannulated and distal ends of PV myocardial sleeves were marked with silk thread prior to enzyme perfusion with collagenase (100 U mL^−1, Worthington, type II), to facilitate identification after enzymatic digestion. PVs were well-perfused and single cardiomyocytes were isolated from all PVs. After isolation, cells were stored at 4° C. and studied within 12 hours.
(§3) For standard-microelectrode experiments and atrial-tachyarrhythmia induction, intact tissue preparations including the LA and adjacent PVs were mounted in a Plexiglas chamber and perfused via the left circumflex coronary artery with oxygenated Kreb's solution at 36±0.5° C. Fine-tipped microelectrodes (resistance 15-20 MΩ when filled with 3-mol/L KCL) coupled to a high-input impedance amplifier were used to record Action Potentials.
Table 1 quantifies this increase in duration by presenting the time required for action potentials in 8 dogs to reach 90%, 50% and 25% repolarization. Results are averages over 24 and 23 action potentials respectively for the pre-TQ data and the post-TQ data.

[1] = tested on: AT-remodeled canine left atrial (LA) preparations; assay: Atrial tachyarrhythmia induction in AT-remodeled coronary-perfused LA preparations in vitro
Protocol: Briefly, dogs were subjected to 7-13 days of AT at about 400 beats per minute (bpm). LA preparations were then coronary-perfused and studied intact in vitro or subjected to cardiomyocyte isolation. IKH was studied with patch clamp.
as §1, §2, §3
For atrial tachyarrhythmia induction, single S2-extrastimuli following 15 S1-stimuli at basic cycle lengths (CLs) of 150-400 ms with a 5-second pause to observe the response were used. All stimuli were twice-threshold, 2-ms pulses.

Kir 3.1/3.4 currents = target: T1, Kir 3.1/3.4 currents (Homo sapiens, UniProt P48544+P48549); details: Jin & Lu, 1999; cited from earlier work
T1 sequence (P48549 1-501): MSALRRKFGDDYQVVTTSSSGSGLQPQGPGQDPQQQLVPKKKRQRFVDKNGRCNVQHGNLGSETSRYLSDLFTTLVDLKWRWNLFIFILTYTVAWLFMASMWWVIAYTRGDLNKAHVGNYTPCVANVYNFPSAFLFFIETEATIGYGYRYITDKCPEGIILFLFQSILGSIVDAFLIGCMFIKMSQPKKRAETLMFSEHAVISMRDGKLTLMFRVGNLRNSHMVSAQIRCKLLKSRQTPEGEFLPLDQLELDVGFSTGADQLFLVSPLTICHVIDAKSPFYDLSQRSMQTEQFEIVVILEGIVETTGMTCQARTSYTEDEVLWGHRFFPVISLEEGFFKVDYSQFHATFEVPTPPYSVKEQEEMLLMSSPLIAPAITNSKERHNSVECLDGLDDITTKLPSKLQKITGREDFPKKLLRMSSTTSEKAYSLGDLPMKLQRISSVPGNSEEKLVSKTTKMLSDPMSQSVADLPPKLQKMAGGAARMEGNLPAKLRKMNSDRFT
T1 sequence (P48544 1-419): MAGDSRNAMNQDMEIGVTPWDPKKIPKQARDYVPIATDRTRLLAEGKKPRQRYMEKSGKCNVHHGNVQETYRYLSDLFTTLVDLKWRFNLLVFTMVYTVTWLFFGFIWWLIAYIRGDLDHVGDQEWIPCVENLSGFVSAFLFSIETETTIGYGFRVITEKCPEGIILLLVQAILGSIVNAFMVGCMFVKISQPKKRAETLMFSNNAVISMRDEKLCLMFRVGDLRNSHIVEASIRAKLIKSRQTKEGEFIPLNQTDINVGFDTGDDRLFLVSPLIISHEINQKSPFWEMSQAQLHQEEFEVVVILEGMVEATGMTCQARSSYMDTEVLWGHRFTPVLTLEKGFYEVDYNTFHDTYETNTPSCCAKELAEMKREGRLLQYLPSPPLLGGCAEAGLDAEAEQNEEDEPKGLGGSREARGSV

Kir2.1 channels = target: T2, Kir2.1 channels (Homo sapiens, UniProt P63252); details: at micromolar concentrations; Jin & Lu, 1999; cited from earlier work
T2 sequence (P63252 1-427): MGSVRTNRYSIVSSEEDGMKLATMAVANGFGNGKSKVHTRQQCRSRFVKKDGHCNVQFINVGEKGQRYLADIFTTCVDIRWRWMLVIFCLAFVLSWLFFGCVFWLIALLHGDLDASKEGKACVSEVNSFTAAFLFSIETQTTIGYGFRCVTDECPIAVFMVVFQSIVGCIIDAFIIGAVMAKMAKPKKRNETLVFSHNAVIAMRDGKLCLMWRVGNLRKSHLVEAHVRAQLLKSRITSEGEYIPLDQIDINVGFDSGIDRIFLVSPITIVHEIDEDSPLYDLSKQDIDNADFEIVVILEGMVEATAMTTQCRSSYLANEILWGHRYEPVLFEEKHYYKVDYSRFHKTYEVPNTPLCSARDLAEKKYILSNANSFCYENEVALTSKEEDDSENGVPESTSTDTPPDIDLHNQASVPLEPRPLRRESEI

In the case of tertiapin-Q, the APD25 (AT-remodeled canine LA; 2 Hz, AT-remodeled preparations, post-TQ, pre-TQ 15.9 ± 1.7) is reported as 39.0 ± 2.5 ms, the APD50 (AT-remodeled canine LA; 2 Hz, AT-remodeled preparations, post-TQ, pre-TQ 44.4 ± 2.3) is reported as 87.4 ± 2.7 ms and the APD90 (AT-remodeled canine LA; 2 Hz, AT-remodeled preparations, post-TQ, pre-TQ 100.1 ± 2.6) is reported as 162.2 ± 4.2 ms. For the same substance, the “effect on action potential duration (in words)” value (AT-remodeled canine LA) was “greatly increases”, the “effect on action potential duration (in words)” value (AT-remodeled canine LA; listed as TQ) was “prominently increased” and the tachyarrhythmia cycle length ([1]; 100 nM TQ, without TQ 108±0.3 ms) was 179 ± 0.8 ms. For the same substance, the mean tachyarrhythmia duration ([1]; 100 nM TQ, without TQ 11602±604 ms) was 520 ± 6 ms, the “time to termination of arrhythmia after TQ administration” value ([1]; 2 cases of tachyarrhythmia lasting uninterrupted for more than 20 minutes) was at most 4 min and the IC50 (Kir 3.1/3.4 currents) was 8 nM. For the same substance, the “effect on Kir2.1 channels (in words)” value (Kir2.1 channels) was “minimal effects”.

— patent publication US20060094003A1, “Acetylcholine-dependent current as a novel ionic target for atrial fibrillation” (priority 2004, published 2006)
